Assay results reported in PMC11879040, “Advancing systemic toxicity risk assessment: Evaluation of a NAM-based toolbox approach” (Toxicological Sciences, 2024).
Like-named read-outs stand apart in the source and are kept apart here.

Tests used:
[1] = target: Voltage-dependent L-type Ca2+ channel (dihydropyridine site), CACNA1C (r) (Rattus norvegicus, UniProt P22002); type: binding
[2] = system: Thyroid hormone receptor alpha, THRA (h); assay: IPP THRA coactivator recruitment (agonist); type: biochemical, human; settings: agonist, T3
HepG2 cells [3] = assay: High-throughput transcriptomics (HTTr, TempO-Seq), HepG2, 24 h; type: cell-based, human; settings: HepG2; for pod_httr_bifrost PoD: HTTr BIFROST PoD; for podl_path_minbmd PoD: HTTr minimum pathway BMD(L)
Experimental: (§1) HepG2, HepaRG, and MCF7 cells were treated with each compound for 24 h across a dose range of 7 concentrations and lysed using TempO-Seq lysis buffer (BioSpyder Technologies, proprietary kit, see [Middleton et al. 2022] for method details). Sequencing was performed using TempO-Seq (BioClavis) version 2 of the human whole transcriptome panel and analyzed as described previously in Middleton et al.

MCF7 cells = assay: High-throughput transcriptomics (HTTr, TempO-Seq), MCF7, 24 h; type: cell-based, human; settings: MCF-7; for pod_httr_bifrost PoD: HTTr BIFROST PoD; for podl_path_minbmd PoD: HTTr minimum pathway BMD(L)
Experimental: as §1

[4] = PBK level L2; taken or scaled from references (median where several); ref [6],[7],[10],[19]; cited from earlier work
[5] = system: Glutamate receptor ionotropic NMDA 1 non-selective, GRIN1 (r); settings: control CGS 19755
[6] = Assignment of risk classifications to benchmark chemical-exposure scenarios; settings: for risk: from table S1
[7] = system: 63 targets with known safety liabilities; assay: In vitro pharmacological profiling (IPP) panel, screening at 10 or 100 µM and dose response, minimum IC50/AC50; type: biochemical; settings: lowest AC50 across IPP panel (systemic targets); cell_type -; read-out: ipp_lowest_ac50_systemic PoD
[8] = system: Sodium channel protein type 5 subunit alpha (site 2), SCN5A (r); type: binding, rat
Tubulin (r) = assay: IPP Tubulin binding; parameters: species or system rat; settings: ligand/control Colchicine
[9] = system: Potassium Voltage-Gated Channel Kv non-selective, KCNQ1 (r); assay: IPP KCNQ1 binding (antagonist radioligand); parameters: species or system rat; settings: control α-dendrotoxin
[10] = target: T1, Adenosine receptor A2a, ADORA2A (h) (Homo sapiens, UniProt P29274); assay: IPP ADORA2A binding (agonist radioligand); settings: control NECA
T1 construct: purchased Eurofins Cerep (SafetyScreen44-based IPP panel)

human = settings: cited from earlier work
[11] = PBK level L2; single value or median; ref [2],[4],[6],[7],[8],[10],[11],[15],[18],[27],[34]; cited from earlier work
HepaRG cells = assay: High-throughput transcriptomics (HTTr, TempO-Seq), HepaRG, 24 h; type: cell-based, human; settings: HepaRG; for pod_httr_bifrost PoD: HTTr BIFROST PoD; for podl_path_minbmd PoD: HTTr minimum pathway BMD(L)
Experimental: as §1

[12] = system: Gamma-aminobutyric acid receptor subunit alpha-1 BZD site, GABRA1A (r); type: binding, rat; settings: control diazepam
HepG2 cells [13] = assay: Cell stress panel (CSP), 24 h, 8 concentrations, BIFROST global PoD; type: cell-based; settings: HepG2; cell stress panel PoD
Experimental: Compounds were tested using the previously developed cell stress panel ([Hatherell et al. 2020]) and the expanded biomarker panel outlined in Middleton et al. HepG2 cells were treated with all compounds for 24 h across 8 concentrations prior to biomarker analysis. The same plate layout and number of replicates (3 biological and 2 technical) were used as previously for each assay within the panel.

[14] = target: T2, Estrogen receptor, ER1 (h) (Homo sapiens, UniProt P03372); assay: IPP ER1 coactivator recruitment (agonist); type: biochemical; settings: estriol
T2 construct: purchased Eurofins Cerep (SafetyScreen44-based IPP panel)
T2 sequence (P03372 1-595): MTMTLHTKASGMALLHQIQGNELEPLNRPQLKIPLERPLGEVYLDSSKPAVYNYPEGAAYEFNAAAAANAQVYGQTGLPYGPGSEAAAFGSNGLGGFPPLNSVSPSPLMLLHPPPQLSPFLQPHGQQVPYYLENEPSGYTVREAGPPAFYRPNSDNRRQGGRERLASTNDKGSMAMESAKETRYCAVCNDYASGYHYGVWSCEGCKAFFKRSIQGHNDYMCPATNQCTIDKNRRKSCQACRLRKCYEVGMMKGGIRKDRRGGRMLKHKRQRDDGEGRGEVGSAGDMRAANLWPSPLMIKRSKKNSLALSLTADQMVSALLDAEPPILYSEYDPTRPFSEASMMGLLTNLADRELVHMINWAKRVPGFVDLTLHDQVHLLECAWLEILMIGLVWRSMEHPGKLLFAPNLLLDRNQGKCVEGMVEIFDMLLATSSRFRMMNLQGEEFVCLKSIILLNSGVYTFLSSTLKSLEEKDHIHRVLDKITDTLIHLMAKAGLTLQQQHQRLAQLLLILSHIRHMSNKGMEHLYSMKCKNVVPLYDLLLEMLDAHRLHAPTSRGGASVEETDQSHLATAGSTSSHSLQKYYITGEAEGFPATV

[15] = target: T2, Estrogen receptor, ER1 (h); assay: IPP ER1 coactivator recruitment (antagonist); type: biochemical; settings: estriol
[16] = target: Potassium voltage-gated channel subfamily H member 2 hERG, KCNH2 (h) (Homo sapiens, UniProt Q12809); settings: [3H] Dofetilide, control Terfenadine
[17] = cited from earlier work
dog = settings: 52 weeks, ref ToxRefDB/Paul-Friedman et al. (2020)/regulatory opinions; cited from earlier work
[18] = human
rat = settings: rat; 7 days; ref ToxRefDB/Paul-Friedman et al. (2020)/regulatory opinions; cited from earlier work
[19] = 100 uM, * denotes assay interference (2-Amino-6-chloro-4-nitrophenol, HC Red 3)
[20] = IPP screening at 10 uM, control veratridine

Potassium voltage-gated channel subfamily H member 2 hERG, KCNH2 (h), sequence (Q12809 whole entry): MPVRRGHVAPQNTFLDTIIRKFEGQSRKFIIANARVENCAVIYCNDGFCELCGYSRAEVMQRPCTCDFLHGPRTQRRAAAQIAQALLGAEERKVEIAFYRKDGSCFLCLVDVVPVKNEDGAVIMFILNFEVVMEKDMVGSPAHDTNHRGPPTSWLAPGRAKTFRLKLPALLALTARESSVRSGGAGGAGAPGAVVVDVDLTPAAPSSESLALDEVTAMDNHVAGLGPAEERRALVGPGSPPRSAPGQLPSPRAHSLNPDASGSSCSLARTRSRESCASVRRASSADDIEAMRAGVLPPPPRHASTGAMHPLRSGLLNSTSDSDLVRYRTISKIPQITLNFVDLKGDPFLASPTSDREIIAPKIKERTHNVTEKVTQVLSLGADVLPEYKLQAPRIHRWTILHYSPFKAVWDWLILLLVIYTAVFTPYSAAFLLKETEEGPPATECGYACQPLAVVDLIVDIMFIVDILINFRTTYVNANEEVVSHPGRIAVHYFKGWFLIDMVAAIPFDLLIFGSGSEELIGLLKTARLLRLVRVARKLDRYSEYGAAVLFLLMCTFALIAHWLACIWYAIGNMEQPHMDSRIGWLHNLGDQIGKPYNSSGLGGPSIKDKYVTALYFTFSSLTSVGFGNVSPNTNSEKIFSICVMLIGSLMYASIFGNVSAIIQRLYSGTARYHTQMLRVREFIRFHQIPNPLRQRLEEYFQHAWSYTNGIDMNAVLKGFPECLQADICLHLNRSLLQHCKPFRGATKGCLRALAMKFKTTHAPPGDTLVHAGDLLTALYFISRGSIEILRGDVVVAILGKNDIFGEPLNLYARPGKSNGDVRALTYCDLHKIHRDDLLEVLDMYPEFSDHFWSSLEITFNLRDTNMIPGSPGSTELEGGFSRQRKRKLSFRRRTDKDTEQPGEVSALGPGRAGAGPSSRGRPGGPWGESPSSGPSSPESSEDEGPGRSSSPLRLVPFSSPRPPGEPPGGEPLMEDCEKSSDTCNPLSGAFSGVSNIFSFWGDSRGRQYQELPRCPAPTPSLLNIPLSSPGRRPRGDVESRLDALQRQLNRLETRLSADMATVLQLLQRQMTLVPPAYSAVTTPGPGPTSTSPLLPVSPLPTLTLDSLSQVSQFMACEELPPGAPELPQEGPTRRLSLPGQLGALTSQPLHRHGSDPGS
T1 sequence (P29274 whole entry): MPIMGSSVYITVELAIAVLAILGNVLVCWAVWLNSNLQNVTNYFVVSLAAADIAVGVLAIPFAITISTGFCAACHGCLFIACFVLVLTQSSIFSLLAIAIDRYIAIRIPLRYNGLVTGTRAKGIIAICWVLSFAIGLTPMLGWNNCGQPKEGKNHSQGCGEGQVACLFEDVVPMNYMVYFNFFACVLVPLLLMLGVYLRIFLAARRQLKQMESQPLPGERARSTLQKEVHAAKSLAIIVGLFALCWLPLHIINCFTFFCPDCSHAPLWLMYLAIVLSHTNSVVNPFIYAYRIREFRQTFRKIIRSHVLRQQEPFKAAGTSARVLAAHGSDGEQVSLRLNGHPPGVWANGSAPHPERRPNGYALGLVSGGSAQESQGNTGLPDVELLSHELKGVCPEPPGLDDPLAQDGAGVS
Voltage-dependent L-type Ca2+ channel (dihydropyridine site), CACNA1C (r), sequence (P22002 whole entry): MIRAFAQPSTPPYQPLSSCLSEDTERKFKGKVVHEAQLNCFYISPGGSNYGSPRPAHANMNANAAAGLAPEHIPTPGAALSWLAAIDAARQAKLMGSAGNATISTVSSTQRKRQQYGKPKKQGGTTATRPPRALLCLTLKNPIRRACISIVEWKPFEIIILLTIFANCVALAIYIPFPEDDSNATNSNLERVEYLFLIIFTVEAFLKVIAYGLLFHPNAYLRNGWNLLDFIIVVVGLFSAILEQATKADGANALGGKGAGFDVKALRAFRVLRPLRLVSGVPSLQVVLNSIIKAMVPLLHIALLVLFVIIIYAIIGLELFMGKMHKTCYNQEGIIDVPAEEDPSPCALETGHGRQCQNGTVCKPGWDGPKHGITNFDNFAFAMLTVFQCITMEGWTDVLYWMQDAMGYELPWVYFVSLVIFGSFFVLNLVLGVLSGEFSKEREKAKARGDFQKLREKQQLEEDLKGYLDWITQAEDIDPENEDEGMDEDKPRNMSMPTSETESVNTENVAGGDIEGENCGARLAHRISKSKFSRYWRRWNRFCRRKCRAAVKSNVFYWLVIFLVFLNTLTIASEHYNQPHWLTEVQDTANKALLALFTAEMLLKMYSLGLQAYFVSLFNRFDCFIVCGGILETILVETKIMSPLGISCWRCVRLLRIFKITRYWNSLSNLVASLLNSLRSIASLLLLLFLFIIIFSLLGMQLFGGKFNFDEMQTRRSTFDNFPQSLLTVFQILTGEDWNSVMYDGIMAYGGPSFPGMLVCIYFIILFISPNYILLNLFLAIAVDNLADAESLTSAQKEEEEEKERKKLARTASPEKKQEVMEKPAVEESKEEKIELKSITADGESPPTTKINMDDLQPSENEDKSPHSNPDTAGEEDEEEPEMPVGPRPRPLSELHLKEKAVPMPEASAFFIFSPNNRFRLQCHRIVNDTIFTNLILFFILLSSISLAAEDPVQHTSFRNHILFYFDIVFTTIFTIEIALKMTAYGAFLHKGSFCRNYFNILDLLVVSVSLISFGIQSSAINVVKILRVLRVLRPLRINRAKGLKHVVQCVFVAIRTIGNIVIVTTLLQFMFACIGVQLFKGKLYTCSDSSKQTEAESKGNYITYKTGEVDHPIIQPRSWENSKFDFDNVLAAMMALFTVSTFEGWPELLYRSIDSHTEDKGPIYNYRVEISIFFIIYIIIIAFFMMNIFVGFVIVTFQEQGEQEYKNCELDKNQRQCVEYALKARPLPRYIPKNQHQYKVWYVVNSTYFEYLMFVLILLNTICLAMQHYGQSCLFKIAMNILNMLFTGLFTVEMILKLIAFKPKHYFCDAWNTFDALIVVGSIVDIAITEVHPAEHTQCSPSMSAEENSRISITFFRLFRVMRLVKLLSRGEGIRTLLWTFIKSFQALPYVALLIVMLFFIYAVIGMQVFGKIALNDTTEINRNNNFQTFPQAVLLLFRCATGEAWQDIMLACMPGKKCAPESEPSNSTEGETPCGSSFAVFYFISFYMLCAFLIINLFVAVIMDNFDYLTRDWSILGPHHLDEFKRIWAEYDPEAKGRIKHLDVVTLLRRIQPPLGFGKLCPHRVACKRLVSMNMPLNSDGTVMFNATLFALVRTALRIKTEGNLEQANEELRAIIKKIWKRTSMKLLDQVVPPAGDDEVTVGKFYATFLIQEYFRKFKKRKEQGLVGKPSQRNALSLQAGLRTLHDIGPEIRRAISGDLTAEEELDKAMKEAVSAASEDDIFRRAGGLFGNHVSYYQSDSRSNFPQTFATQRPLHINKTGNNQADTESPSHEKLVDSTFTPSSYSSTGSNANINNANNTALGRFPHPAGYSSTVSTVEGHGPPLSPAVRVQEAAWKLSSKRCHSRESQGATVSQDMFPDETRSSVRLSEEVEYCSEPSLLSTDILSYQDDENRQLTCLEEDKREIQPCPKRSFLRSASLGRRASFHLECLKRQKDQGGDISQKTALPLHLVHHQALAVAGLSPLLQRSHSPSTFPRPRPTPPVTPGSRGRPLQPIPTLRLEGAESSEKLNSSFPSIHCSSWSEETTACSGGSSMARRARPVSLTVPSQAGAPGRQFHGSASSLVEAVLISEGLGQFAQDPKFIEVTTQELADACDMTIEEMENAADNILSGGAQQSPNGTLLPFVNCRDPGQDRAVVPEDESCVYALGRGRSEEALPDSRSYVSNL

Row | SMILES | IPP screening %, Coactivator recruitment [2, 19] | pod_httr_bifrost PoD (HepG2 cells [3]) | podl_path_minbmd PoD (HepG2 cells [3]) | pod_httr_bifrost PoD (MCF7 cells) | podl_path_minbmd PoD (MCF7 cells) | Intrinsic Liver Clearance [4] | Specific binding ([5]; IPP screening at 100 uM) | AC50 [7] | IPP screening %, Specific binding (Tubulin (r); 100 uM) | Specific binding ([9]; IPP screening at 100 uM) | Specific binding ([10]; IPP screening at 100 uM) | Fup [11] | pod_httr_bifrost PoD (HepaRG cells) | podl_path_minbmd PoD (HepaRG cells) | Specific binding ([12]; IPP screening at 100 uM) | pod_cell_stress PoD (HepG2 cells [13]) | IPP screening %, Coactivator recruitment ([2]; 10 uM) | Specific binding ([5]; IPP screening at 10 uM) | Specific binding [8, 20] | Specific binding ([9]; IPP screening at 10 uM) | other results
1 | CCOC(=O)c1ccc(N)cc1 [Benzocaine, Ethyl 4-aminobenzoate] | 2.0% | 9.489 µM | 242.367 µM | 0.8705 µM | 19.4739 µM | 7799.2 L/h | 11.5% | 6 µM | 15.0% | 3.6% | 36.2% | 36.7% | 103.552 µM | 413.121 µM | -9.1% | 47.784 µM |  |  |  |  | Specific binding [1]: 10.5%; Risk Classification ([6]; Dermal 20% in Gel): High risk; risk ([6]; Oral, 22mg/kg is the safety dose, Solution, Exp1): 1; Specific binding [8]: -0.8%; adverse event reports related to methaemaglobinemia (human; of the 218 adverse event reports identified by Moore et al, ref [9]): Of the 218 adverse event reports identified by Moore et al, 136 were related to methaemaglobinemia with 2 cases resulting in deaths and 107 resulting in serious events.
2 | CCN(CC)C(=O)c1cccc(C)c1 [DEET, N,N-Diethyl-3-methylbenzamide] | 0.0% | 16.9912 µM | 582.029 µM | 67.2542 µM | 670.53 µM |  | 4.4% | 53.7 µM | -14.0% | -4.9% | 20.5% |  | 24.7921 µM | 567.13 µM | 8.9% | 29.817 µM |  |  |  |  | risk ([6]; Dermal, 15%, Sun lotion, Exp1): 0; IPP screening %, Coactivator recruitment [14, 19]: 2.0%; Specific binding ([8]; IPP screening at 100 uM, control veratridine): 11.7%; IPP screening %, Coactivator recruitment [15, 19]: 0.0%; IPP screening %, Specific binding ([16]; 100 uM): -12.0%; NOAEL ([17]; 2-gen study, alpha-2-u nephropathy not relevant for humans, ref https://doi.org/10.1016/B978-0-12-374367-1.00098-7): Lowest human-relevant NOAEL was from a subchronic study. NOAEL of 25 mkd from 2-gen study appears to be based on alpha-2-u nephropathy which is not relevant for humans (https://doi.org/10.1016/B978-0-12-374367-1.001-7); PoD (NOAEL) ([17]; species '-', 364 days, ref ToxRefDB/Paul-Friedman et al. (2020)/regulatory opinions): 100 mg/kg bw/day
3 | N#CC(CCc1ccc(Cl)cc1)(Cn1cncn1)c1ccccc1 (stereo not drawn) [Fenbuconazole, 4-(4-Chlorophenyl)-2-phenyl-2-[(1H-1,2,4-triazol-1-yl)methyl]butanenitrile] |  | 0.5034 µM | 16.5577 µM | 1.305 µM | 15.4204 µM | 10900 L/h |  | 2.86 µM |  |  |  | 2% | 0.6247 µM | 4.705 µM |  | 2.477 µM | 2.0% | 38.6% | 100.8% | 3.0% | Specific binding ([1]; IPP screening at 10 uM, control nitrendipine): 97.8%; PoD (NOAEL) (dog): 0.38 mg/kg bw/day; Risk Classification ([6]; Oral, residue, 0.006 mg/kg bw/day): Low risk; Risk Classification ([6]; Oral, residue, 73% of 0.006 mg/kg bw/day): Low risk; risk ([6]; Oral, 73% ADI of 0.006 mg/kg bw/day, Food residue, Exp3): 0; risk ([6]; Oral, ADI 0.006 mg/kg bw/day, Food residue, Exp2): 0; IPP screening %, Specific binding (Tubulin (r); 10 uM): -20.0%; Specific binding ([10]; IPP screening at 10 uM): 34.0%; IPP screening %, Specific binding ([16]; 10 uM): 79.9%; Specific binding ([12]; IPP screening at 10 uM): 3.5%
4 | O=CCCCC=O [Glutaraldehyde, Pentanedial] |  |  |  |  |  |  |  |  |  |  |  |  |  |  |  |  | 3.0% | -4.1% | 13.2% | 5.2% | risk [18]: 0; IPP screening %, Coactivator recruitment ([14]; 10 uM): 2.0%; PoD (NOAEL) (rat): 1 mg/kg bw/day; IPP screening %, Coactivator recruitment ([15]; 10 uM): -9.0%; Specific binding ([10]; IPP screening at 10 uM): -3.4%; NOAEL (human; 1 year human study, ref not given): The lowest NOAEL from a rat repeat-dose study. Not there is also a 1 year human study with a NOAEL of 3 mkd.; IPP screening %, Specific binding ([16]; 10 uM): -1.1%; Specific binding ([12]; IPP screening at 10 uM): -5.0%
